Test results from PMC2850174 (The Journal of biological chemistry, 2007).

What was measured:
AtHEX1 [1] = biological target: T1, AtHEX1 (Arabidopsis thaliana, UniProt Q8L7S6); experiment: p-nitrophenylglycoside hydrolysis assay; type: biochemical
T1 sequence (Q8L7S6 25-535 limits assumed): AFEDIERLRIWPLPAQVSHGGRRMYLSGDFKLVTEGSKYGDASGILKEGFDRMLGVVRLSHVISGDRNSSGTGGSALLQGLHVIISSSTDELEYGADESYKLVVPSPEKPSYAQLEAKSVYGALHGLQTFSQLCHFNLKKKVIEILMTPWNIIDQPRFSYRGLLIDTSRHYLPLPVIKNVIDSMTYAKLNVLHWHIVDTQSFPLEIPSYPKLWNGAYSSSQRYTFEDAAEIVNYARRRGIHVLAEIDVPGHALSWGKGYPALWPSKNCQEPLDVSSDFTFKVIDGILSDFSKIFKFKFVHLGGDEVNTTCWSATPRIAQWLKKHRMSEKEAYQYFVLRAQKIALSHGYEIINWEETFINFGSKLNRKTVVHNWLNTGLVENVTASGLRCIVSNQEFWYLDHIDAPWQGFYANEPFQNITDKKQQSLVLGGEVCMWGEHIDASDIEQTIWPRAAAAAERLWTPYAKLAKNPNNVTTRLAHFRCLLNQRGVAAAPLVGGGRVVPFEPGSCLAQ

HEX-1 = biological target: T2, HEX-1 (Caenorhabditis elegans, UniProt Q22492); experiment: p-nitrophenylglycoside hydrolysis assay, Dixon plot; type: biochemical
T2 sequence (Q22492 19-555 limits assumed): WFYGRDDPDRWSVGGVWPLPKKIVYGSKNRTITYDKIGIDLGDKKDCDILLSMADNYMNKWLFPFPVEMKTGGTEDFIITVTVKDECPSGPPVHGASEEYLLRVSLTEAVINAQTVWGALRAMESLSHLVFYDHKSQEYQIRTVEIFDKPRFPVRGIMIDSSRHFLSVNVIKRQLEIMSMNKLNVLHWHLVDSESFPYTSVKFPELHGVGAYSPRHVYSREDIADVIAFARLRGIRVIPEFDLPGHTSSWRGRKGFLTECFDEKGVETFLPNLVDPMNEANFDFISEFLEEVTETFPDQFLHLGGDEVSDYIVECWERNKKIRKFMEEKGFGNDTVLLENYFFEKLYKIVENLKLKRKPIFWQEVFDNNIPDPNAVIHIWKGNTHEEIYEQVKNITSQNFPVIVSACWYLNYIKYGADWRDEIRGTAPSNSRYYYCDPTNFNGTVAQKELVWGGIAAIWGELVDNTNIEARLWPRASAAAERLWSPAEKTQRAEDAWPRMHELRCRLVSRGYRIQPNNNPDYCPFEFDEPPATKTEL

AtHEX1 [2] = biological target: T1, AtHEX1; experiment: p-nitrophenylglycoside hydrolysis assay, single concentration; type: biochemical; settings: read-out: % inhibition at 0.1 mM
HEX-3 = biological target: T3, HEX-3 (Caenorhabditis elegans, UniProt A7DY67); experiment: GnGn-PA digestion, RP-HPLC; type: biochemical; settings: read-out: % inhibition at 200 μM
T3 sequence (A7DY67 31-591 limits assumed): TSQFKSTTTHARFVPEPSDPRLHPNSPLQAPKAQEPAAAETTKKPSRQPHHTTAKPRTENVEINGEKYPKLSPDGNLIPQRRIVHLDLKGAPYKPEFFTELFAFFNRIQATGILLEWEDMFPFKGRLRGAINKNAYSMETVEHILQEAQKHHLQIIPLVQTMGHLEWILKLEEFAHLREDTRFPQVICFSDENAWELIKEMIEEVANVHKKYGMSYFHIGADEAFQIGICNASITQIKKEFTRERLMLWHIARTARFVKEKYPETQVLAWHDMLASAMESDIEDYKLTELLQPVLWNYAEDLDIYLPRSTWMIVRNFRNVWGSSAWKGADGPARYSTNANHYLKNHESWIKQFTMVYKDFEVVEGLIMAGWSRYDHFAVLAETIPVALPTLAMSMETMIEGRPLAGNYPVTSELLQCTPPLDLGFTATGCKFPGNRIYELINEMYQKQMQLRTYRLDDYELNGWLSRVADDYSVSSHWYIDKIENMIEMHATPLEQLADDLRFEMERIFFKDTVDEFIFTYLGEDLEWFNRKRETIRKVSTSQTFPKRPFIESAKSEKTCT

HEX-2 = biological target: T4, HEX-2 (Caenorhabditis elegans, UniProt G5EFL1); experiment: GnGn-PA digestion, RP-HPLC; type: biochemical; settings: read-out: % inhibition at 200 μM
T4 sequence (G5EFL1 36-596 limits assumed): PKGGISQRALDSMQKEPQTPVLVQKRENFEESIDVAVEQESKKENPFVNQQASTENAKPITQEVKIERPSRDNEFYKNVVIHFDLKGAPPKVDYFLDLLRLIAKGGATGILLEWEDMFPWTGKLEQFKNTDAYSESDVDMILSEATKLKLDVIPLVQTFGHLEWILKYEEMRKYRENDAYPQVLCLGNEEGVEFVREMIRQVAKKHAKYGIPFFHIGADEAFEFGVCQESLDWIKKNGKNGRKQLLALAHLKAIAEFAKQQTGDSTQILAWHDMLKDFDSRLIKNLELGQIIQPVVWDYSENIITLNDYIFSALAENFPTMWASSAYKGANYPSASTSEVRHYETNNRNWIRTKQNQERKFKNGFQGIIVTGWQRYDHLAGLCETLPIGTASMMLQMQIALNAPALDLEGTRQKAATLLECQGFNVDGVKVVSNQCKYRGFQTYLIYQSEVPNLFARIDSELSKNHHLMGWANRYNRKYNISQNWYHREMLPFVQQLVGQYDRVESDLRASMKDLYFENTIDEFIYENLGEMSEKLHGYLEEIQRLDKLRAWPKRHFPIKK

purified protein = substrate: CC(=O)N[C@H]1[C@H](Oc2ccc([N+](=O)[O-])cc2)O[C@H](CO)[C@@H](O)[C@@H]1O; experiment: purified protein

CC(=O)N[C@H]1CN[C@H](CO)[C@@H](O)[C@@H]1O [2-acetamido-1,2-dideoxynojirimycin, 2-acetamido-1,2,5-trideoxy-1,5-imino-D-glucitol]
p-nitrophenylglycoside hydrolysis assay (about 50% inhibition at 0.2 mM) (AtHEX1 [1]): about 50% inhibition at 0.2
Ki (HEX-1): ~1000 µM

CC(=O)N[C@H]1/C(=N/OC(=O)Nc2ccccc2)O[C@H](CO)[C@@H](O)[C@@H]1O [PUGNAc, O-(2-acetamido-2-deoxy-D-glucopyranosylidene)amino N-phenylcarbamate]
inhibition at 100 µM (AtHEX1 [2]): ~90%
Ki (HEX-1): ~2 µM

CC(=O)N[C@H]1CN2CC[C@H](O)[C@@H]2[C@@H](O)[C@@H]1O
inhibition at 200 µM (HEX-3): ~80%
inhibition at 200 µM (HEX-2): ~80%

B1: HEX-1 (Caenorhabditis elegans) (protein)
chain: T2 sequence (Q22492 19-555 limits assumed)
Km (purified protein): 1100 µM
